Measurements as given in ChEMBL document CHEMBL1158143, “Zinagrandinolides A-C, cytotoxic delta-elemanolide-type sesquiterpene lactones from Zinnia grandiflora” (J Nat Prod, 2006).

Tests used:
NCI-H460 = assay: Cytotoxicity against human NCI-H460 cells after 24 hrs by MTT assay; type: functional, cell-based; settings: NCI-H460, 24 h
MCF7 = assay: Cytotoxicity against human MCF7 cells after 24 hrs by MTT assay; type: functional, cell-based; settings: MCF7, 24 h
SF-268 = assay: Cytotoxicity against human SF-268 cells after 24 hrs by MTT assay; type: functional, cell-based; settings: SF-268, 24 h
MIA PaCa-2 = assay: Cytotoxicity against human MIA PaCa2 cells after 24 hrs by MTT assay; type: functional, cell-based; settings: MIA PaCa-2, 24 h
[1] = Cytotoxicity against human WI38 cells after 24 hrs by MTT assay; type: cell-based; settings: WI-38, 24 h

SMILES | IC50 (NCI-H460) [nM] | IC50 (MCF7) [nM] | IC50 (SF-268) [nM] | IC50 (MIA PaCa-2) [nM] | IC50 [1] [nM]
C=C1C(=O)O[C@H]2[C@@H](OC(C)=O)[C@@H]1[C@H](OC(=O)C(C)(C)O)[C@H](C(=C)C=O)[C@@]2(C)[C@@H]1CO1 (relative stereo) | 970 | 520 | 640 | 440 | 760
COc1cccc2c1C(=O)c1c(O)c3c(c(O)c1C2=O)C[C@@](O)(C(=O)CO)C[C@@H]3O[C@H]1C[C@H](N)[C@H](O)[C@H](C)O1 [DOXORUBICIN] | 10 | – | – | – | 300
C=C1C(=O)O[C@H]2[C@@H](OC(C)=O)[C@@H]1[C@H](OC(=O)C(C)(O)CC)[C@H](C(=C)C=O)[C@@]2(C)[C@@H]1CO1 (relative stereo) [ZINAGRANDINOLIDE A] | 450 | 510 | 290 | 220 | 690
C=C[C@@]1(C)[C@H]2OC(=O)C(=C)[C@H]([C@@H]2OC(C)=O)[C@H](OC(=O)C(C)(C)O)[C@@H]1C(=C)C=O (relative stereo) [ZINAGRANDINOLIDE C] | 270 | 550 | 440 | 320 | 640
C=C[C@@]1(C)[C@H]2OC(=O)C(=C)[C@H]([C@@H]2OC(C)=O)[C@H](OC(=O)C(C)(O)CC)[C@@H]1C(=C)C=O (relative stereo) [ZINAGRANDINOLIDE B] | 250 | 380 | 300 | 210 | 430
